How the values were obtained:
[1] = system: buckwheat (wild buckwheat, Polygonum convolvulus); assay: Test C plant response; type: in vivo; conditions: Preemergence, scale 0 to 100
[2] = system: wild mustard (Sinapis arvensis); assay: Test C plant response; type: in vivo; conditions: Preemergence, scale 0 to 100
[3] = system: oilseed rape (Brassica napus); assay: Test C plant response; type: in vivo; conditions: Preemergence, scale 0 to 100
[4] = system: Italian ryegrass (Lolium multiflorum); assay: Test C plant response; type: in vivo; conditions: Preemergence, scale 0 to 100
[5] = system: winter wheat (Triticum aestivum); assay: Test C plant response; type: in vivo; conditions: Preemergence, scale 0 to 100
[6] = system: chickweed (common chickweed, Stellaria media); assay: Test C plant response; type: in vivo; conditions: Preemergence, 125 g ai/ha; scale 0 to 100
[7] = system: wild oat (Avena fatua); assay: Test C plant response; type: in vivo; conditions: Preemergence, scale 0 to 100
[8] = system: galium (catchweed bedstraw, Galium aparine); assay: Test C plant response; type: in vivo; conditions: Preemergence, scale 0 to 100
[9] = system: green foxtail (Setaria viridis); assay: Test C plant response; type: in vivo; conditions: Preemergence, scale 0 to 100
[10] = system: windgrass (Apera spica-venti); assay: Test C plant response; type: in vivo; conditions: Preemergence, scale 0 to 100
[11] = system: blackgrass (Alopecurus myosuroides); assay: Test C plant response; type: in vivo; conditions: Preemergence, scale 0 to 100
[12] = system: bromegrass (downy bromegrass, Bromus tectorum); assay: Test C plant response; type: in vivo; conditions: Preemergence, scale 0 to 100
[13] = system: bluegrass (annual bluegrass, Poa annua); assay: Test C plant response; type: in vivo; conditions: Preemergence, scale 0 to 100
[14] = system: field violet (Viola arvensis); assay: Test C plant response; type: in vivo; conditions: Preemergence, scale 0 to 100
[15] = system: spring barley (Hordeum vulgare); assay: Test C plant response; type: in vivo; conditions: Preemergence, scale 0 to 100
[16] = system: deadnettle (henbit deadnettle, Lamium amplexicaule); assay: Test C plant response; type: in vivo; conditions: Preemergence, scale 0 to 100
[17] = system: wild radish (Raphanus raphanistrum); assay: Test C plant response; type: in vivo; conditions: Preemergence, scale 0 to 100
[18] = system: kochia (Kochia scoparia); assay: Test C plant response; type: in vivo; conditions: Preemergence, scale 0 to 100
[19] = system: pigweed (Amaranthus retroflexus); assay: Test C plant response; type: in vivo; conditions: Preemergence, scale 0 to 100
[20] = system: sprangletop (bearded (i.e. Brdd.) sprangletop, Leptochloa fascicularis); assay: Test E flooded paddy rice and weeds; type: in vivo; conditions: applied to paddy water, 21 days, scale 0 to 100
Outline: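 Tama silt loam pots; plants at 2.0–2.5 leaves; flood 3 cm, compound into water; 30/27° C greenhouse, 16 h photoperiod; visual % control vs untreated at 21 d.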

Compound: Cc1ccccc1-n1c(-c2ccccc2)ncc(C(=O)C2=C(O)CCCC2=O)c1=O [Compound 12]
- Plant response rating: Buckwheat, Wild ([1]; 62 g ai/ha): 0
- Plant response rating: Buckwheat, Wild ([1]; 125 g ai/ha): 40
- Plant response rating: Buckwheat, Wild ([1]; 16 g ai/ha): 0
- Plant response rating: Buckwheat, Wild ([1]; 31 g ai/ha): 0
- Plant response rating: Mustard, Wild ([2]; 62 g ai/ha): 5
- Plant response rating: Mustard, Wild ([2]; 16 g ai/ha): 0
- Plant response rating: Oilseed Rape ([3]; 62 g ai/ha): 30
- Plant response rating: Oilseed Rape ([3]; 125 g ai/ha): 40
- Plant response rating: Oilseed Rape ([3]; 16 g ai/ha): 0
- Plant response rating: Oilseed Rape ([3]; 31 g ai/ha): 20
- Plant response rating: Ryegrass, Italian ([4]; 62 g ai/ha): 0
- Plant response rating: Ryegrass, Italian ([4]; 125 g ai/ha): 0
- Plant response rating: Ryegrass, Italian ([4]; 16 g ai/ha): 0
- Plant response rating: Ryegrass, Italian ([4]; 31 g ai/ha): 0
- Plant response rating: Wheat, Winter ([5]; 62 g ai/ha): 0
- Plant response rating: Wheat, Winter ([5]; 125 g ai/ha): 0
- Plant response rating: Wheat, Winter ([5]; 16 g ai/ha): 0
- Plant response rating: Wheat, Winter ([5]; 31 g ai/ha): 0
- Plant response rating: Chickweed [6]: 50
- Plant response rating: Oat, Wild ([7]; 62 g ai/ha): 0
- Plant response rating: Oat, Wild ([7]; 125 g ai/ha): 0
- Plant response rating: Oat, Wild ([7]; 16 g ai/ha): 0
- Plant response rating: Oat, Wild ([7]; 31 g ai/ha): 0
- Plant response rating: Galium ([8]; 62 g ai/ha): 35
- Plant response rating: Galium ([8]; 125 g ai/ha): 35
- Plant response rating: Galium ([8]; 16 g ai/ha): 0
- Plant response rating: Galium ([8]; 31 g ai/ha): 0
- Plant response rating: Foxtail, Green ([9]; 62 g ai/ha): 0
- Plant response rating: Foxtail, Green ([9]; 125 g ai/ha): 0
- Plant response rating: Foxtail, Green ([9]; 16 g ai/ha): 0
- Plant response rating: Foxtail, Green ([9]; 31 g ai/ha): 0
- Plant response rating: Windgrass ([10]; 62 g ai/ha): 40
- Plant response rating: Windgrass ([10]; 125 g ai/ha): 40
- Plant response rating: Windgrass ([10]; 16 g ai/ha): 20
- Plant response rating: Windgrass ([10]; 31 g ai/ha): 20
- Plant response rating: Blackgrass ([11]; 62 g ai/ha): 0
- Plant response rating: Blackgrass ([11]; 125 g ai/ha): 0
- Plant response rating: Blackgrass ([11]; 16 g ai/ha): 0
- Plant response rating: Blackgrass ([11]; 31 g ai/ha): 0
- Plant response rating: Bromegrass, Downy ([12]; 62 g ai/ha): 0
- Plant response rating: Bromegrass, Downy ([12]; 125 g ai/ha): 0
- Plant response rating: Bromegrass, Downy ([12]; 16 g ai/ha): 0
- Plant response rating: Bromegrass, Downy ([12]; 31 g ai/ha): 0
- Plant response rating: Bluegrass ([13]; 62 g ai/ha): 20
- Plant response rating: Bluegrass ([13]; 125 g ai/ha): 35
- Plant response rating: Bluegrass ([13]; 16 g ai/ha): 0
- Plant response rating: Bluegrass ([13]; 31 g ai/ha): 0
- Plant response rating: Field Violet ([14]; 62 g ai/ha): 0
- Plant response rating: Field Violet ([14]; 125 g ai/ha): 0
- Plant response rating: Field Violet ([14]; 16 g ai/ha): 0
- Plant response rating: Field Violet ([14]; 31 g ai/ha): 0
- Plant response rating: Barley, Spring ([15]; 62 g ai/ha): 0
- Plant response rating: Barley, Spring ([15]; 125 g ai/ha): 0
- Plant response rating: Barley, Spring ([15]; 16 g ai/ha): 0
- Plant response rating: Barley, Spring ([15]; 31 g ai/ha): 0
- Plant response rating: Deadnettle ([16]; 62 g ai/ha): 90
- Plant response rating: Deadnettle ([16]; 125 g ai/ha): 100
- Plant response rating: Deadnettle ([16]; 16 g ai/ha): 35
- Plant response rating: Deadnettle ([16]; 31 g ai/ha): 50
- Plant response rating: Radish, Wild ([17]; 62 g ai/ha): 0
- Plant response rating: Radish, Wild ([17]; 125 g ai/ha): 0
- Plant response rating: Radish, Wild ([17]; 16 g ai/ha): 0
- Plant response rating: Radish, Wild ([17]; 31 g ai/ha): 0
- Plant response rating: Kochia ([18]; 62 g ai/ha): 5
- Plant response rating: Kochia ([18]; 125 g ai/ha): 25
- Plant response rating: Kochia ([18]; 16 g ai/ha): 5
- Plant response rating: Kochia ([18]; 31 g ai/ha): 5
- Plant response rating: Pigweed ([19]; 62 g ai/ha): 50
- Plant response rating: Pigweed ([19]; 125 g ai/ha): 65
- Plant response rating: Pigweed ([19]; 16 g ai/ha): 0
- Plant response rating: Pigweed ([19]; 31 g ai/ha): 0

Compound: O=C1CCCC(O)=C1C(=O)c1cnc(-c2ccccc2)n(Cc2ccccc2)c1=O [Compound 17, 5-[(2-hydroxy-6-oxo-1-cyclohexen-1-yl)carbonyl]-2-phenyl-3-(phenylmethyl)-4(3H)-pyrimidinone]
- melting point: 57 to 58 °C

Compound: COc1ccc(-n2c(-c3ccccc3)ncc(C(=O)C3=C(O)CCCC3=O)c2=O)cc1OC [Compound 218]
- Plant response rating, Sprangletop, Brdd., Flood ([20]; 32 g ai/ha): 65
- Plant response rating, Sprangletop, Brdd., Flood ([20]; 64 g ai/ha): 70
- Plant response rating, Sprangletop, Brdd., Flood ([20]; 125 g ai/ha): 70
- Plant response rating, Sprangletop, Brdd., Flood ([20]; 250 g ai/ha): 95
